The text below walks through data of PubChem BioAssay (NCI).

The structures appear in SMILES notation.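 Protocol summary: plate cells (96-well), add compound at 5 concentrations, incubate 48 h, interpolate endpoints linearly. GI50 = concentration required for 50% inhibition of growth. TGI denotes the concentration required for complete inhibition of growth.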 Where only a bound is given, the exact number is not on record here.

What all share (assay): NCI-60 cell line screen, 48 h
The subject of test [1] is SK-MEL-28 melanoma.
Test [2] deals with T-47D breast.
Test [3] deals with SN12C renal.
For test [4], the system named is OVCAR-3 ovarian.
The test system of test [5] is SK-MEL-2 melanoma.
In test [6] the test system is MCF7 breast.
Test [7] relates to SF-539 CNS.
For test [8], the system named is HL-60(TB) leukemia.
Test [9] concerns HOP-62 NSCLC.
For test [10], the system named is KM12 colon.

`C[C@]12CC[C@H]3[C@@H](CC=C4C[C@@H](O)CC[C@@]43C)[C@@H]1C/C(=C\c1cccc(OCCCn3ccnc3)c1)[C@@H]2O`: the GI50 was 12.2 µM in test [1]; 6.4 µM in test [2]; 15.8 µM in test [3]; 17.4 µM in [5]; 14.5 µM in [6]; 8.01 µM in [7]. For the same molecule, the results for the GI50 in test [8], in test [9] and in test [10] were 8.1 µM, 15.1 µM and 11.9 µM, respectively. Further, the TGI in test [1] came out at 29.1 µM; in [2], 30.1 µM; in test [3], 38 µM; in test [4] it was 29.9 µM; in test [5], 33.6 µM; in test [6] it was 34.2 µM. Moreover, the TGI was 23.7 µM in test [7], 34.3 µM in test [8], 32.7 µM in test [9] and 28.7 µM in [10].

Regarding `COc1cc(-c2ccc(-[n+]3nc(-c4ccc([N+](=O)[O-])cc4)nn3-c3ccc([N+](=O)[O-])cc3)c(OC)c2)ccc1-[n+]1nc(-c2ccc([N+](=O)[O-])cc2)nn1-c1ccc([N+](=O)[O-])cc1`, the GI50 is 18 µM in [1]; 0.3 µM in test [2]; 7.05 µM in test [3]; 9.77 µM in test [4]; 4.29 µM in [5]; 1.75 µM in test [6]. In addition, the GI50 in [7] was 1.8 µM; in [8], 1.91 µM; in test [9], 1.84 µM; in [10] it was 4.04 µM. Further, the TGI worked out at 64.4 µM in test [1]; 5.75 µM in test [2]; 40.3 µM in test [3]; 38.2 µM in test [4]; 17.9 µM in [5]; 4.47 µM in test [6]. Besides, the TGI in [7] was 3.97 µM; in test [8] it was greater than 46.2 µM; in test [9], 4.54 µM; in [10] it was 21.4 µM.

`COc1cc(/C=C2\C[C@H]3[C@@H]4CC=C5C[C@@H](OC(C)=O)CC[C@]5(C)[C@H]4CC[C@]3(C)[C@H]2OC(C)=O)ccc1OCCCn1ccnc1`: the GI50 was 15.9 µM in test [1]; 16 µM in test [2]; 8.84 µM in [3]; 12.3 µM in test [4]; 16.7 µM in [5]; 9.95 µM in [6]. Further, the GI50 in test [7] is 4.72 µM; in test [8], 12.7 µM; in test [9], 11.3 µM; in [10] it was 8.31 µM. Further, the TGI was greater than 50 µM in test [1]; greater than 50 µM in test [2]; 21.9 µM in [3]; 26.2 µM in [4]; greater than 50 µM in [5]; 20.9 µM in [6]. Also, the TGI in [7] was 12.5 µM; in test [8], 34.1 µM; in [9], 19.5 µM; in test [10], 18.1 µM.

`O=C(CSc1nc2sc3c(c2c(=O)n1-c1ccccc1)CCCCC3)N/N=C/c1ccc(F)cc1`: the GI50 is 3.24 µM in test [1]; 2.34 µM in test [2]; 1.99 µM in test [3]; 1.78 µM in [4]; 14.4 µM in [5]; 2.91 µM in [6]. The GI50 is 1.85 µM in [7], greater than 100 µM in test [8], 2.38 µM in test [9] and 6 µM in test [10]. The TGI in test [1] is 13.1 µM; in [2], 24.6 µM; in test [3], 6.9 µM; in [4], 4.07 µM; in test [5] it was 28.8 µM; in test [6] it was 21 µM. For the same molecule, the TGI in test [7] is 3.53 µM; in test [8], greater than 100 µM; in [9] it was 7.39 µM; in [10], greater than 100 µM.

For `O=C1NC(=O)[C@H]2C3C=CC([C@@H]12)[C@@H]1C(=O)NC(=O)[C@H]31`, the TGI in test [1], in [2], in [3], in test [4], in test [5] and in test [6] was greater than 100 µM in each case. Further, the TGI in [7], in [8] and in test [9] was greater than 100 µM in each case.

On to `O=C(CCc1ccc(O)c(O)c1)c1ccc(O)c(O)c1O`, for which the TGI in [1] is greater than 100 µM; in test [2], 66.3 µM; in test [3], 31.9 µM; in test [5], greater than 100 µM; in test [6], 42 µM; in test [7], 37.7 µM. Further, the results for the TGI in test [8] and in test [10] were 32.6 µM and 36.2 µM, respectively.

As for `CCN(CC)CCCC(C)N/C(c1cccc(OC)c1)=c1\c(=O)[nH]n(-c2c3ccccc3nc3ccccc23)c(=O)\c1=C(/NC(C)CCCN(CC)CC)c1cccc(OC)c1` (stereo unspecified), the GI50 in [1] is 1.69 µM; in test [2] it was 2.16 µM; in test [3], 1.74 µM; in test [4], 1.8 µM; in [6], 0.507 µM; in test [7], 1.67 µM. For the same molecule, the GI50 in [8] was 2.16 µM; in test [9] it was 1.47 µM; in test [10], 1.18 µM. Also, the TGI in test [1] was 3.17 µM; in test [2], 5.97 µM; in test [3] it was 10.8 µM; in test [4], 5.4 µM; in test [6], 3.41 µM; in test [7], 3.21 µM. The TGI was determined as 5.23 µM in test [8], 5.03 µM in [9] and 6.51 µM in test [10].

For the molecule `CCOC(=O)CCc1c(C)c2ccc(O)cc2oc1=O`, the TGI in test [1], in test [2], in [3], in test [4], in [5] and in [6] was greater than 100 µM throughout. The TGI in [7], in test [8] and in [9] was greater than 100 µM throughout.

With `CC(=O)O[C@H]1C(=O)[C@@]2(C)[C@H]([C@H](OC(=O)c3ccccc3)[C@]3(O)C[C@H](OC(=O)[C@H](OC(=O)CCC(=O)OC4CCC(S/N=C(N)/N=C(\N)N(C)C)CC4)[C@@H](NC(=O)c4ccccc4)c4ccccc4)C(C)=C1C3(C)C)[C@]1(OC(C)=O)CO[C@@H]1C[C@@H]2O` (stereo partly specified), the GI50 in test [1] was 8.57 µM; in test [2] it was 0.0139 µM; in [3], 0.0325 µM; in test [4], 0.0112 µM; in test [6], less than 0.005 µM; in test [7], 0.00847 µM. The GI50 was 0.0101 µM in test [8], 0.0133 µM in test [9] and 0.0106 µM in [10]. Further, the TGI was greater than 50 µM in test [1]; greater than 50 µM in [2]; greater than 50 µM in [3]; greater than 50 µM in test [4]; greater than 50 µM in test [6]; 0.0255 µM in test [7]. For the same molecule, the TGI in [8] was 0.0234 µM; in [9], greater than 50 µM; in test [10], greater than 50 µM.
